Residues, ends and D or L forms follow the SMILES beside them.
Assays:
human Glucagon-R = biological target: T1, human Glucagon-R (Homo sapiens, UniProt P47871); experiment: Glucagon receptor efficacy assay (cAMP generation in HEK293 cells); assay type: cell-based; settings: cAMP generation in HEK293 cells expressing Glucagon receptor
T1 construct: The DNA encoding the Glucagon-R or the GLP-1-R was amplified by PCR using primers encoding terminal restriction sites for subcloning; expressed in transfected cells
T1 sequence (P47871 26-477): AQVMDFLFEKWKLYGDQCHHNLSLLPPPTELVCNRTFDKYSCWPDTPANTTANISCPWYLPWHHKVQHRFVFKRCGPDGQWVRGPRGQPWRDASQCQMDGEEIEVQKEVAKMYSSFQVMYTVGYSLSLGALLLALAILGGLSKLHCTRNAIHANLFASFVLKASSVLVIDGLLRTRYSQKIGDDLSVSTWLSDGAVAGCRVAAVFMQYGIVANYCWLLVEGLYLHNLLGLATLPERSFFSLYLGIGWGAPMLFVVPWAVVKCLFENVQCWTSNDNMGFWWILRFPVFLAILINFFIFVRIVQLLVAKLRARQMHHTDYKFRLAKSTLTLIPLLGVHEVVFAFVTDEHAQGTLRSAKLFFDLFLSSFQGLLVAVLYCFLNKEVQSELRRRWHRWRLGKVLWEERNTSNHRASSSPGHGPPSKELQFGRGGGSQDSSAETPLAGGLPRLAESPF
Description: (§1) The DNA encoding the Glucagon-R or the GLP-1-R was amplified by PCR using primers encoding terminal restriction sites for subcloning. The 5′-end primers additionally encoded a near Kozak consensus sequence to ensure efficient translation. The fidelity of the DNA encoding the Glucagon-R and the GLP-1-R was confirmed by DNA sequencing. The PCR products encoding the Glucagon-R or the GLP-1-R were subcloned into a mammalian expression vector containing a neomycin (G418) resistance marker. The mammalian expression vectors encoding the Glucagon-R or the GLP-1-R were transfected into HEK293 cells by a standard calcium phosphate transfection method. 48 hr after transfection cells were seeded for limited dilution cloning and selected with 1 mg/ml G418 in the culture medium. Three weeks later 12 surviving colonies of Glucagon-R and GLP-1-R expressing cells were picked, propagated and tested in the Glucagon-R and GLP-1-R efficacy assays as described below. One Glucagon-R expressing clone and one GLP-1-R expressing clone were chosen for compound profiling.
(§2) On the day of analysis, growth medium was removed and the cells washed once with 200 μl Tyrode buffer. Cells were incubated in 100 μl Tyrode buffer containing increasing concentrations of test peptides, 100 μM IBMX, and 6 mM glucose for up 15 min at 37° C. The reaction was stopped by addition of 25 μl 0.5 M HCl and incubated on ice for 60 min. The cAMP content was estimated using the FlashPlate® cAMP kit from Perkin-Elmer according to manufacturer instructions. EC50 and relative efficacies compared to reference compounds (glucagon and GLP-1) were estimated by computer aided curve fitting.

human GLP-1-R = biological target: T2, human GLP-1-R (Homo sapiens, UniProt P43220); experiment: GLP-1 receptor efficacy assay (cAMP generation in HEK293 cells); assay type: cell-based; settings: cAMP generation in HEK293 cells expressing GLP-1 receptor
T2 construct: The DNA encoding the Glucagon-R or the GLP-1-R was amplified by PCR using primers encoding terminal restriction sites for subcloning; expressed in transfected cells
T2 sequence (P43220 24-463): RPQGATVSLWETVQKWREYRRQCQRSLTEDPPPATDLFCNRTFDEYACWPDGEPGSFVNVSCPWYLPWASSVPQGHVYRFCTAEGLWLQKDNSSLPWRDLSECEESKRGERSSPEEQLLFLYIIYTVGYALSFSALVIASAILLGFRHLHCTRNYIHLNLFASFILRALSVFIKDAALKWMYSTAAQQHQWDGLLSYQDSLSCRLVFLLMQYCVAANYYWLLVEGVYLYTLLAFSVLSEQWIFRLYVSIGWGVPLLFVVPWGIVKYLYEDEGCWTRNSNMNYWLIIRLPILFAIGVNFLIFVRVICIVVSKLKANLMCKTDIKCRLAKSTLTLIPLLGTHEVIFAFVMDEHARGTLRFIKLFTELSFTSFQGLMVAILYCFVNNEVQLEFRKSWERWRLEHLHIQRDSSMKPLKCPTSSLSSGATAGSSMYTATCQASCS
Description: as §1, §2

SMILES	EC50 (human Glucagon-R)	EC50 (human GLP-1-R)
CCCCCCCCCCCCCCCC(=O)N[C@@H](CCC(=O)NCCCC[C@H](NC(=O)[C@H](CCC(=O)O)NC(=O)[C@H](CC(=O)O)NC(=O)[C@H](CC(C)C)NC(=O)[C@H](Cc1ccc(O)cc1)NC(=O)[C@H](CCCNC(=N)N)NC(=O)[C@H](CO)NC(=O)[C@H](Cc1ccc(O)cc1)NC(=O)[C@H](CC(=O)O)NC(=O)[C@H](CO)NC(=O)[C@@H](NC(=O)[C@H](Cc1ccccc1)NC(=O)[C@@H](NC(=O)CNC(=O)[C@H](CCC(N)=O)NC(=O)[C@H](CO)NC(=O)[C@@H](N)Cc1c[nH]cn1)[C@@H](C)O)[C@@H](C)O)C(=O)N[C@@H](CCCNC(=N)N)C(=O)N[C@@H](C)C(=O)N[C@@H](CCCNC(=N)N)C(=O)N[C@@H](CC(=O)O)C(=O)N[C@@H](Cc1ccccc1)C(=O)N[C@H](C(=O)N[C@@H](CCC(=O)O)C(=O)N[C@@H](Cc1c[nH]c2ccccc12)C(=O)N[C@@H](CC(C)C)C(=O)N[C@@H](CC(C)C)C(=O)N[C@@H](CO)C(=O)N[C@@H](C)C(N)=O)[C@@H](C)CC)C(=O)O [Compound 7] (HELM PEPTIDE1{H.S.Q.G.T.F.T.S.D.Y.S.R.Y.L.D.E.K.R.A.R.D.F.I.E.W.L.L.S.A.[am]}|PEPTIDE2{[CCCCCCCCCCCCCCCC(=O)[*:2]].[gGlu]}$PEPTIDE1,PEPTIDE2,17:R3-2:R2$$$V2.0)	0.06 nM	0.06 nM
CCCCCCCCCCCCCCCC(=O)N[C@@H](CCC(=O)NCCCC[C@H](NC(=O)[C@H](CCC(=O)O)NC(=O)[C@H](CC(=O)O)NC(=O)[C@H](CC(C)C)NC(=O)[C@H](Cc1ccc(O)cc1)NC(=O)[C@H](CCCNC(=N)N)NC(=O)[C@H](CO)NC(=O)[C@H](Cc1ccc(O)cc1)NC(=O)[C@H](CC(=O)O)NC(=O)[C@H](CO)NC(=O)[C@@H](NC(=O)[C@H](Cc1ccccc1)NC(=O)[C@@H](NC(=O)CNC(=O)[C@H](Cc1c[nH]cn1)NC(=O)[C@@H](CO)NC(=O)[C@@H](N)Cc1c[nH]cn1)[C@@H](C)O)[C@@H](C)O)C(=O)N[C@@H](CCCNC(=N)N)C(=O)N[C@@H](C)C(=O)N[C@@H](CCCNC(=N)N)C(=O)N[C@@H](CC(=O)O)C(=O)N[C@@H](Cc1ccccc1)C(=O)N[C@H](C(=O)N[C@@H](CCC(=O)O)C(=O)N[C@@H](Cc1c[nH]c2ccccc12)C(=O)N[C@@H](CC(C)C)C(=O)N[C@@H](CC(C)C)C(=O)N[C@@H](CO)C(=O)N[C@@H](C)C(N)=O)[C@@H](C)CC)C(=O)O [Compound 11] (HELM PEPTIDE1{H.[dS].H.G.T.F.T.S.D.Y.S.R.Y.L.D.E.K.R.A.R.D.F.I.E.W.L.L.S.A.[am]}|PEPTIDE2{[CCCCCCCCCCCCCCCC(=O)[*:2]].[gGlu]}$PEPTIDE1,PEPTIDE2,17:R3-2:R2$$$V2.0)	0.09 nM	
CCCCCCCCCCCCCCCC(=O)N[C@@H](CCC(=O)NCCCC[C@H](NC(=O)[C@H](CCC(=O)O)NC(=O)[C@H](CC(=O)O)NC(=O)[C@H](CC(C)C)NC(=O)[C@H](Cc1ccc(O)cc1)NC(=O)[C@H](CCCCN)NC(=O)[C@H](CO)NC(=O)[C@H](Cc1ccc(O)cc1)NC(=O)[C@H](CC(=O)O)NC(=O)[C@H](CO)NC(=O)[C@@H](NC(=O)[C@H](Cc1ccccc1)NC(=O)[C@@H](NC(=O)CNC(=O)[C@H](Cc1c[nH]cn1)NC(=O)[C@H](CO)NC(=O)[C@@H](N)Cc1c[nH]cn1)[C@@H](C)O)[C@@H](C)O)C(=O)N[C@@H](CCCNC(=N)N)C(=O)N[C@@H](C)C(=O)N[C@@H](CCCCN)C(=O)N[C@@H](CC(=O)O)C(=O)N[C@@H](Cc1ccccc1)C(=O)N[C@H](C(=O)N[C@@H](CCC(=O)O)C(=O)N[C@@H](Cc1c[nH]c2ccccc12)C(=O)N[C@@H](CC(C)C)C(=O)N[C@@H](CC(C)C)C(=O)N[C@@H](CO)C(=O)N[C@@H](C)C(N)=O)[C@@H](C)CC)C(=O)O [Compound 18] (HELM PEPTIDE1{H.S.H.G.T.F.T.S.D.Y.S.K.Y.L.D.E.K.R.A.K.D.F.I.E.W.L.L.S.A.[am]}|PEPTIDE2{[CCCCCCCCCCCCCCCC(=O)[*:2]].[gGlu]}$PEPTIDE1,PEPTIDE2,17:R3-2:R2$$$V2.0)	0.09 nM	

Reference: patent US20160347813A1, “GLUCAGON ANALOGUES” (Zealand Pharma A/S, priority 2011, published 2016)
